Results on one molecule are retold here after US20110045076A1, “LINEAR ORDER RELEASE POLYMER” (priority 2008, published 2011).

≈ marks a conversion by molar mass, not a printed value.

This series in a line: Solubility study of dapivirine. It is filed as physicochemical. The settings on record: for solubility: 37 °C, aqueous with cosolvent or surfactant or cyclodextrin, thermodynamic from solid; for Time to reach saturation: 37° C. On the procedure: HPLC quantification of dapivirine was conducted as follows. The HPLC system (Agilent 1050) consisted of a solvent module, quaternary pump module and a variable wavelength UV detector. For analysis of release and solubility study samples, an alkyl amide column (Supelcosil™ ABZ+Plus 3 μm, 3.3 cm×4.6 mm ID, Supelco, Bellefonte, Pa.) was used with a gradient of 50:50 acetonitrile and water to 100% acetonitrile (both containing 0.1% v/v trifluoroacetic acid, TFA) in 4 minutes at a flow rate of 1 mL/min. The retention time of dapivirine was 1.1 min. A linear calibration curve of dapivirine was obtained in the range of 1-100 ng/injection (r^2>0.99) at the detection wavelength of 286 nm. The quantification limit of HPLC for dapivirine was 0.65 ng/injection (corresponds to 2 μl of a 1 μM solution) with a signal to noise ratio greater than 10. A longer method was developed for the stability study; a C-18 column (Hypersil BDS-C18, 10 cm×4.0 mm ID, […], Thermo Electron Corporation, Waltham, Mass.) was used with acetonitrile (A) and water (B) both containing 0.1% v/v TFA as eluent at a flow rate of 1 mL/min. A gradient of 30:70 A:B to 70:30 A:B was applied in 7 minutes with retention time of dapivirine at 5.7 minutes. The HPLC method was modified for LC/MS analysis: the flow rate was reduced to 0.5 mL/min; a gradient of 30:70 A:B to 70:30 A:B in 14 minutes; the TFA concentration in the eluents was 0.05% v/v and the retention time for dapivirine was 10.5 minutes.
Solubility studies of dapivirine were conducted to determine the appropriate sink conditions for the in vitro release studies. Dapivirine is a hydrophobic molecule; therefore a co-solvent system that can provide sink conditions (solubility greater than 3 times the maximum concentration achieved in the release medium) during dapivirine release study was needed. Since a co-solvent system consisting of 50:50 v/v i-prOH:water has been utilized previously for long-term release studies of dapivirine from silicone rings^11,18, the solubility of dapivirine was determined in 50:50 and 25:75 v/v i-prOH:water solutions. Additionally, solubility of dapivirine in liposome dispersions was evaluated in an attempt to utilize them as biorelevant sink conditions.^14,21 The liposome dispersions of 10 mg/mL in 25 mM pH 4.2 acetate buffer (osmolarity adjusted to 310 mOsm/kg with NaCl) and 25 mM pH 7.6 phosphate buffer (osmolarity adjusted to 310 mOsm/kg with NaCl) were utilized. (See in vitro release studies in Example 4 for preparation of liposome dispersions.) Dapivirine (10 mg) was dispersed in test solutions (2 mL) and shaken at 37° C. at 200 rpm. Aliquots of 200 μL were withdrawn at 24 h, 48 h and 72 h. At each time point, the aliquots were centrifuged immediately for 2 minutes at 16000 g, 100 μL of the supernatant was diluted 1:10 using 100% isopropanol and quantified by HPLC. The solubility was determined by a calibration curve generated from known concentrations of dapivirine solutions in i-prOH.

Turning to `Cc1cc(C)c(Nc2ccnc(Nc3ccc(C#N)cc3)n2)c(C)c1` [dapivirine, 4-[[4-[(2,4,6-trimethylphenyl)amino]pyrimidin-2-yl]amino]benzonitrile], the solubility (commonly how much of the substance goes into solution per volume) is 844 µM (≈ 278 µg/mL) (10 mg/mL liposome dispersion in pH 4.2 acetate buffer, 10 mg/mL pH 4.2 liposome dispersion); 165 µM (≈ 54.4 µg/mL) (10 mg/mL liposome dispersion in pH 7.6 phosphate buffer, 10 mg/mL pH 7.6 liposome dispersion); 93 µM (≈ 30.6 µg/mL) (25:75 v/v i-prOH:water, 25:75 i-prOH:water); 3310 µM (≈ 1090 µg/mL) (50:50 v/v i-prOH:water, 50:50 i-prOH:water). Also, the “Time to reach saturation” value was determined as 48 h (10 mg/mL pH 4.2 liposome dispersion), 48 h (10 mg/mL pH 7.6 liposome dispersion), 48 h (25:75 i-prOH:water) and 24 h (50:50 i-prOH:water). Also, the dapivirine solubility (25:75 v/v i-prOH:water solution) stood at 93 μM/L.
